Experimental findings from patent US9200008B2 (ASKA PHARMACEUTICAL CO., LTD., priority 2010, dated 2015) are described below.

The test system of this experiment is Human prostate cancer cell lines (PC-3 cells). Kind of experiment: Measurement of cell death-inducing activity (Test Example 1). Particulars: PC-3, 48 h, 48 hours after addition, tested at 10, 1, 0.1, 0.025 and 0.00625 μmol/L, qualitative evaluation of 10 fields, read-out: Concentration showing the cell death-inducing activity (cell death-inducing rate not less than 40%). Format: cell-based. In a few lines:
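Compound treatment lasted 48 h at 10 to 0.00625 μmol/L (five levels, DMSO as control) on PC-3 cells pre-cultured 48 h at 37 °C, 5% CO2 after seeding at 1×10^5 cells/well. A cell death-inducing rate of 40% or more counted as active.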

Take `COc1cc(Cl)ccc1-c1cc(COC(=O)Nc2ccc3c(cnn3C)c2)n(C)n1` [Example 13-127]: the minimal effective concentration amounted to 0.1 µM. In the case of `COc1ccc(/C=N/NC(=O)c2[nH]c(-c3ccc(Cl)cc3)nc2C)cc1O` [Example 25-5, 2-(4-Chlorophenyl)-5-methyl-3H-imidazole-4-carboxylic acid[1-(3-hydroxy-4-methoxyphenyl)methylidene]hydrazide] it was 10 µM; in that of `COc1cc(C)ccc1-c1cc(NC(=O)OCc2ccc3nn(C)cc3c2)n(C)n1` [Example 9-293], 0.1 µM; in that of `Cc1nc(-c2cccs2)sc1NC(=O)OCc1ccc2c(c1)ncn2C` [Example 9-191], 10 µM.

For `COc1cc(Cl)ccc1-c1nc(C)c(COC(=O)Nc2ccc3c(c2)nc2n3CCC2)s1` [Example 13-27], the minimal effective concentration worked out at 1 µM.

Consider `Cc1ccc(-c2nc(C)c(NC(=O)OCc3ccc4ncsc4c3)s2)c(C)c1` [Example 36-4], for which the minimal effective concentration amounted to 10 µM. For the compound `COc1ccc(-c2nc(C)c(NC(=O)OCc3ccc4c(c3)ncn4C)s2)c(OC)c1` [Example 9-41], the minimal effective concentration turned out to be 0.025 µM.

With `CCn1nc(-c2ccc(F)cc2OC)cc1COC(=O)Nc1ccc2c(c1)nc1n2CCCC1` [Example 13-117], the minimal effective concentration came to 0.1 µM. With `CCn1cnc2cc(NC(=O)OCc3cc(-c4ccc(Cl)cc4OC)ns3)ccc21` [Example 47-11], the minimal effective concentration worked out at 0.1 µM. For the compound `COc1ccc(/C=N/NC(=O)c2sc(-c3ccc(Cl)cc3)nc2C(C)(C)C)cc1O` [Example 23-20], the minimal effective concentration was 10 µM. `COc1ccccc1-c1nc(C)c(C(=O)N/N=C/c2ccc3ncccc3c2)s1` [Example 23-97]: the minimal effective concentration was found to be 0.1 µM. For the compound `COc1cc(Cl)ccc1-c1nc(C)c(NC(=O)OCc2ccc3c(c2)nc2n3CCOC2)s1` [Example 9-93], the minimal effective concentration was found to be 0.00625 µM. On to `COc1ccccc1-c1cc(COC(=O)Nc2ccc3c(c2)nc2n3CCCC2)sn1` [Example 47-5], for which the minimal effective concentration is 0.1 µM. Consider `Cc1cc(F)ccc1-c1nc(C)c(COC(=O)Nc2ccc3nn(C)cc3c2)s1` [Example 13-49], for which the minimal effective concentration is 0.1 µM. `COc1cc(F)ccc1-c1nc(C)c(NC(=O)OCc2ccc3nn(C)cc3c2)s1` [Example 9-143]: the minimal effective concentration was 0.025 µM. With `Cc1ccc(-c2nc(C)c(NC(=O)OCc3ccc4c(c3)nc(C)n4C)s2)c(C)c1` [Example 9-78], the minimal effective concentration is 0.025 µM.

For the compound `COc1cc(/C=N/NC(=O)c2sc(-c3ccc(Cl)cc3OC)nc2C)ccc1O` [Example 23-81], the minimal effective concentration is 10 µM. As for `COc1ccccc1-c1cc(NC(=O)OCc2ccc3c(c2)nc2n3CCC2)n(C)n1` [Example 9-254], the minimal effective concentration worked out at 1 µM. For `COc1ccccc1-c1nc(C)c(NC(=O)OCc2ccc3c(ccn3C)c2)s1` [Example 9-29], the minimal effective concentration came to 10 µM. The figure for `COc1cc(Cl)ccc1-c1cc(COC(=O)Nc2ccc3c(c2)nc2n3CCOC2)nn1C` [Example 13-144] is 10 µM; for `CCn1cnc2cc(COC(=O)Nc3sc(-c4ccccc4C)nc3C)ccc21` [Example 9-53] it is 0.1 µM; for `Cc1nc(-c2ccc(F)cc2Cl)sc1COC(=O)Nc1ccc2c(c1)ncn2C` [Example 13-11] it is 0.025 µM. Regarding `CCc1nc(-c2ccc(Cl)cc2OC)sc1NC(=O)OCc1ccc2nn(C)cc2c1` [Example 9-364], the minimal effective concentration worked out at 0.025 µM. The figure for `COc1ccc(/C=N/NC(=O)c2sc(-c3cccc(F)c3)nc2C)cc1O` [Example 23-72] is 1 µM; for `COc1cc(Cl)ccc1-c1nc(C)c(C(=O)N/N=C/c2ccc3c(c2)CCO3)s1` [Example 23-83] it is 0.1 µM; for `COCc1nc2cc(COC(=O)Nc3cc(-c4ccc(Cl)cc4OC)nn3C)ccc2n1C` [Example 9-274] it is 1 µM. In the case of `COc1ccc(-c2nc(C)c(C(=O)N/N=C/c3ccc(O)c4ccccc34)s2)cc1` [Example 23-113] it was 10 µM. With `COc1cc(Cl)ccc1-c1nscc1NC(=O)OCc1ccc2c(c1)ncn2C` [Example 45-5], the minimal effective concentration was found to be 0.1 µM. In the case of `Cc1nc(-c2ccc(Cl)s2)sc1NC(=O)OCc1ccc2c(c1)ncn2C` [Example 9-193] it was 1 µM. The figure for `Cc1cc(Cl)ccc1-c1nc(C)c(NC(=O)OCc2ccc3c(c2)nc2n3C(C)CCC2)s1` (stereo not drawn) [Example 9-119] is 10 µM. With `COc1cc(F)ccc1-c1cc(COC(=O)Nc2ccc3c(c2)ncn3C)n(C)n1` [Example 13-80], the minimal effective concentration was 0.00625 µM. As for `CCn1ncc2cc(NC(=O)OCc3cc(-c4ccc(Cl)cc4OC)nn3C)ccc21` [Example 13-129], the minimal effective concentration was 0.025 µM. The figure for `COc1cc(Cl)ccc1-c1nc(C)c(NC(=O)OCc2ccc3sc(C)nc3c2)s1` [Example 37-1, [2-(4-Chloro-2-methoxyphenyl)-4-methylthiazol-5-yl]carbamic acid 2-methylbenzothiazol-5-ylmethyl ester] is 0.1 µM.

On to `COc1ccc(/C=N/NC(=O)c2sc(-c3ccccc3F)nc2C)cc1O` [Example 23-71], for which the minimal effective concentration came out at 1 µM.

As to `COc1ccc(/C=N/NC(=O)c2sc(-c3cnccc3C)nc2C)cc1O` [Example 23-135], the minimal effective concentration was 1 µM. The figure for `COc1cc(Cl)ccc1-c1nc(C)c(NC(=O)OCc2ccc3c(c2)nc(C)n3C)s1` [Example 9-76] is 0.025 µM. Take `COc1ccc(/C=N/NC(=O)c2sc(-c3ccc(Cl)cc3OC)nc2C)cc1OC` [Example 23-78]: the minimal effective concentration came to 0.1 µM. Regarding `CCn1cnc2cc(NC(=O)OCc3sc(-c4ccccc4C)nc3C)ccc21` [Example 13-12], the minimal effective concentration came out at 0.1 µM. As to `Cc1cccnc1-c1nc(C)c(NC(=O)OCc2ccc3c(c2)ncn3C)s1` [Example 9-195], the minimal effective concentration turned out to be 10 µM. In the case of `Cc1ccc(-c2nc(C)c(NC(=O)OCc3ccc4c(c3)nc3n4CCN(C)C3)s2)c(C)c1` [Example 38-3, [2-(2,4-Dimethylphenyl)-4-methylthiazol-5-yl]carbamic acid 2-methyl-1,2,3,4-tetrahydrobenzo[4,5]imidazo[1,2-a]pyrazin-8-ylmethyl ester] it was 10 µM; in that of `COc1ccccc1-c1cc(NC(=O)OCc2ccc3c(c2)ncn3C)n(C)n1` [Example 9-213], 0.025 µM. The figure for `Cc1cc(F)ccc1-c1nc(C)c(NC(=O)OCc2ccc3nn(C)cc3c2)s1` [Example 9-149] is 1 µM. As to `CCn1nc(-c2ccc(C)cc2OC)cc1COC(=O)Nc1ccc2c(c1)nc1n2CCOC1` [Example 13-102], the minimal effective concentration was found to be 0.025 µM. For `COc1cc(C)ccc1-c1cc(COC(=O)Nc2ccc3c(c2)ncn3C)sn1` [Example 47-3], the minimal effective concentration is 0.00625 µM. Regarding `COc1ccccc1-c1ncc(NC(=O)OCc2ccc3c(c2)ncn3C)s1` [Example 9-178], the minimal effective concentration was determined as 10 µM. In the case of `COc1ccc(/C=N/NC(=O)c2sc(-c3ccc(Cl)cc3OC)nc2C)cn1` [Example 23-85], the minimal effective concentration was determined as 1 µM. In the case of `COc1ccc(/C=N/NC(=O)c2sc(-c3cccnc3)nc2C)cc1O` [Example 23-41], the minimal effective concentration turned out to be 1 µM.

With `COc1ccccc1-c1cc(COC(=O)Nc2ccc3c(c2)ncn3C)sn1` [Example 47-2], the minimal effective concentration amounted to 1 µM. Consider `COc1cc(Cl)ccc1-c1nc(C)c(C(=O)NN(C)Cc2ccc3c(c2)CCO3)s1` [Example 16-18], for which the minimal effective concentration came to 1 µM. In the case of `COc1cc(F)ccc1-c1cc(COC(=O)Nc2ccc3c(c2)ncn3C)nn1C` [Example 13-135] it was 0.1 µM; in that of `CCCCCCOc1ccc(/C=N/NC(=O)c2sc(-c3ccc(Cl)cc3)nc2C)cc1O` [Example 23-105], 10 µM; in that of `CCn1nnc2cc(COC(=O)Nc3sc(-c4ccccc4OC)nc3C)ccc21` [Example 9-22], 0.025 µM.

For the compound `COc1cc(F)ccc1-c1cc(NC(=O)OCc2ccc3c(c2)nc2n3CCCC2)n(C)n1` [Example 9-265], the minimal effective concentration worked out at 1 µM. Consider `CCc1nc(-c2ccc(Cl)cc2OC)sc1NC(=O)OCc1ccc2c(cnn2CC)c1` [Example 9-173], for which the minimal effective concentration is 0.025 µM.

For `CCc1nc(-c2ccc(Cl)cc2C)sc1NC(=O)OCc1ccc2c(c1)nc1n2CCOC1` [Example 9-377], the minimal effective concentration was 0.025 µM. As for `Cc1ccccc1-c1ncc(C(=O)N/N=C/c2ccc3c(c2)OCO3)s1` [Example 23-52], the minimal effective concentration worked out at 1 µM. As for `CCn1nc(-c2ccc(Cl)cc2Cl)cc1NC(=O)OCc1ccc2c(c1)ncn2CC` [Example 9-210], the minimal effective concentration amounted to 0.1 µM.

For the compound `CCc1ccccc1-c1nc(C)c(NC(=O)OCc2ccc3c(c2)ncn3C)s1` [Example 9-36], the minimal effective concentration is 0.025 µM.

With `CCn1nc(-c2ccc(C)cc2C)cc1NC(=O)OCc1ccc2cn(C)nc2c1` [Example 9-303], the minimal effective concentration came out at 1 µM. For `CCc1nc(-c2ccccc2OC)sc1NC(=O)OCc1ccc2c(c1)nc1n2CCOC1` [Example 9-168], the minimal effective concentration was 0.1 µM.

With `CCn1cc2ccc(COC(=O)Nc3cc(-c4ccc(Cl)cc4OC)nn3CC)cc2n1` [Example 9-302], the minimal effective concentration came to 0.1 µM.

As to `O=C(N/N=C/c1ccc(OC(F)F)c(O)c1)c1cc(-c2ccc(Cl)cc2Cl)ns1` [Example 27-2], the minimal effective concentration was 10 µM.

Turning to `COc1cc(C)ccc1-c1nc(C)c(NC(=O)OCc2ccc3nn(C)cc3c2)s1` [Example 9-145], the minimal effective concentration came out at 0.025 µM.
